# Measurements taken from US20080014187A1, “Compositions and Methods for Treating Hypertension and Inflammation” (priority 2006, published 2008).
# What was measured:
# [1] = eight human clinical trials; cited from earlier work
# [2] = case study, patient with hypertension, blood pressure and side effects; assay type: in vivo, human; settings: 30 mg CoQ10 at 9 AM, patient on 40 mg telmisartan in the evening; reading by 12 PM, from 140/90 at 8 AM
# Protocol: Because of these drug side effects, the patient subsequently dropped the amlodipine and took only a 40 mg daily dose of telmisartan in the evening before retiring. […] On one day with a reading of 140/90 at 8 AM, the patient took 30 mg of CoQ10 at 9 AM and their blood pressure sharply dropped to 103/71 by 12 PM. The patient subsequently began taking 30 mg CoQ10 in the morning and evening along with the evening only dose of 40 mg telmisartan.
# serum IL-6 and TNF-alpha = settings: reported in the literature; cited from earlier work
SMILES,decrease of mean diastolic blood pressure [1] [mm Hg],decrease of mean systolic blood pressure [1] [mm Hg],blood pressure [2],serum IL-6 (serum IL-6 and TNF-alpha),serum TNF-alpha (serum IL-6 and TNF-alpha)
"COC1=C(OC)C(=O)C(C/C=C(\C)CC/C=C(\C)CC/C=C(\C)CC/C=C(\C)CC/C=C(\C)CC/C=C(\C)CC/C=C(\C)CC/C=C(\C)CC/C=C(\C)CCC=C(C)C)=C(C)C1=O [CoQ10, Coenzyme Q10]",10,16,103/71,reduces,reduces
CCOC(=O)[C@H](CCc1ccccc1)N[C@@H](C)C(=O)N1Cc2ccccc2C[C@H]1C(=O)O [quinapril],,,,lower,lower
